Like-named read-outs stand apart in the source and are kept apart here. Marks after values point to notes of the source that are not given here.
How the values were obtained:
[1] = target: T1, epithelial sodium channel (Canis lupus familiaris, UniProt A0A8I3MKE6+A0A8I3Q679+Q95165); assay: Inhibition of short-circuit current (ISC) in airway epithelial monolayers in Ussing chambers; format: cell-based, canine
T1 construct: endogenous in cells; host or cells: primary canine bronchial epithelial cells cultured at air-liquid interface
T1 sequence (A0A8I3Q679 1-649): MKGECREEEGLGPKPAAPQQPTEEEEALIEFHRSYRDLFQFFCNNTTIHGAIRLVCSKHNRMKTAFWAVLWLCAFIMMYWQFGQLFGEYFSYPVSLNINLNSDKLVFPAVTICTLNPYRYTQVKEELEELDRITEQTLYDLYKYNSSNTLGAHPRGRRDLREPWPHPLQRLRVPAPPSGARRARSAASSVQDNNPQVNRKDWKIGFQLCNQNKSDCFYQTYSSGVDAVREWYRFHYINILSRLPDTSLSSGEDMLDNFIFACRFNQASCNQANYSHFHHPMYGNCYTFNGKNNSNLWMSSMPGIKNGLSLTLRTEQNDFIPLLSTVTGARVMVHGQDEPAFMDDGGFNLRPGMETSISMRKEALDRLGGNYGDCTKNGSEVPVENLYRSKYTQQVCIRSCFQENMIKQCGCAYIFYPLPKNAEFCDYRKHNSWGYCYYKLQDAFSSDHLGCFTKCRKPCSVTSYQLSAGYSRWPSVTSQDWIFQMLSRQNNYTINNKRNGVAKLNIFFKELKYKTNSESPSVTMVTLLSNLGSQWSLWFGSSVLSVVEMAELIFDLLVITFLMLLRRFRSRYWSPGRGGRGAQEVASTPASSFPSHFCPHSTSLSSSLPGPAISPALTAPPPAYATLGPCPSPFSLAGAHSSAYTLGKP
T1 sequence (Q95165 1-641): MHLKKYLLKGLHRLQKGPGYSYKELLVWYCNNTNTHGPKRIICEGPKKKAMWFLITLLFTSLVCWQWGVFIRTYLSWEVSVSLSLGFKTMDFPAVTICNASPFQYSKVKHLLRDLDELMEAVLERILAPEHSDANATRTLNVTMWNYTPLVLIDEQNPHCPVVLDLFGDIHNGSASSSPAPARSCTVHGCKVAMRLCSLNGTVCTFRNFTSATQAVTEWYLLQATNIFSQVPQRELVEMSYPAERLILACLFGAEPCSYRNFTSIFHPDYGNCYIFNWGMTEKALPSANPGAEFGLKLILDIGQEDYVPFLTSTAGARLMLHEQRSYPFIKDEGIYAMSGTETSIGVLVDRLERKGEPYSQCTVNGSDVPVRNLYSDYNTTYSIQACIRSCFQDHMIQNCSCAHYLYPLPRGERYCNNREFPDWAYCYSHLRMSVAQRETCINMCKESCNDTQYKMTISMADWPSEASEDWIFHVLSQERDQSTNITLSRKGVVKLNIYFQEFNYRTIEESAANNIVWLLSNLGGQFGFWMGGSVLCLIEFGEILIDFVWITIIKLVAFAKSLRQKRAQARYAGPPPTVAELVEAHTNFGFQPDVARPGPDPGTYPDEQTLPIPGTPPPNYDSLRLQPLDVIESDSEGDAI
T1 sequence (A0A8I3MKE6 1-646): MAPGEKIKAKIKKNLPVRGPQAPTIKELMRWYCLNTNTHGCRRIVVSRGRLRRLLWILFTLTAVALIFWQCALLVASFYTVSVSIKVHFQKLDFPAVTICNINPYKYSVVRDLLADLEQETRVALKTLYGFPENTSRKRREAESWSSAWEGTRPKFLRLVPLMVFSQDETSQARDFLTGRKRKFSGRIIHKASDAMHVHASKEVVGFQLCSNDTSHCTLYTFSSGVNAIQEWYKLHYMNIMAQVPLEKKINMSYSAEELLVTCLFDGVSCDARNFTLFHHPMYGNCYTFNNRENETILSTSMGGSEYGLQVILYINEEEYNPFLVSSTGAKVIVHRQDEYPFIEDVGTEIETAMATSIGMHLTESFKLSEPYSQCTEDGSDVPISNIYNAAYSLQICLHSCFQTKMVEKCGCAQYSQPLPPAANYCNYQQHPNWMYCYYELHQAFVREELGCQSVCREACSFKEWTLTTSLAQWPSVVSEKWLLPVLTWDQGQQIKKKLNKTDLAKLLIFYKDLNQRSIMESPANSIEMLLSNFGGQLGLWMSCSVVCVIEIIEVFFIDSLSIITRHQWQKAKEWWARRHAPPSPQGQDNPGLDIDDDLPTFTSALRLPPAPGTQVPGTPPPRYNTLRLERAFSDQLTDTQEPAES
Description: One assay used to assess mechanism of action and/or potency of the compounds of the present invention involves the determination of lumenal drug inhibition of airway epithelial sodium currents measured under short circuit current (ISC) using airway epithelial monolayers mounted in Using chambers. Cells obtained from freshly excised human, dog, sheep or rodent airways are seeded onto porous 0.4 micron Snapwelff Inserts (CoStar), cultured at air-liquid interface (ALI) conditions in hormonally defined media, and assayed for sodium transport activity (ISC) while bathed in Krebs Bicarbonate Ringer (KBR) in Using chambers. All test drug additions are to the lumenal bath with half-log dose addition protocols (from 1×10^−11 M to 3×10^−5 M), and the cumulative change in ISC (inhibition) recorded. All drugs are prepared in dimethyl sulfoxide as stock solutions at a concentration of 1×10^−2 M and stored at −20° C. […] After the maximal concentration ([…]) is administered, the lumenal bath is exchanged three times with fresh drug-free KBR solution, and the resultant ISC measured after each wash for approximately 5 minutes in duration. Reversibility is defined as the percent return to the baseline value for sodium current after the third wash. All data from the voltage clamps are collected via a computer interface and analyzed off-line.
Dose-effect relationships for all compounds are considered and analyzed by the Prism 3.0 program.

Sheep MCC = assay: Mucociliary clearance (MCC) studies in sheep; format: in vivo; conditions: sheep
Description: The animal model that has been used most often to measure changes in MCC is the sheep model. The effect of compounds for enhancing mucociliary clearance (MCC) can be measured using an in vivo model described by Sabater et al., Journal of Applied Physiology, 1999, pp. 2191-2196, incorporated herein by reference.
In these studies, adult sheep were restrained and nasally intubated with an endotracheal tube. Aerosolized test articles were administered over 10-15 minutes to sheep. Radiolabeled ^99mTc-sulfur colloid (TSC, 3.1 mg/mL; containing approximately 20 mCi) was then administered at a specified time four or eight hours after test article. The radiolabeled aerosol was administered through the endotracheal tube for about 5 minutes. The sheep were then extubated, and total radioactive counts in the lung were measured every 5 minutes for a 1-hour observation period. The rate of radiolabel clearance from the lung is representative of the MCC rate in the animal. The advantage of this system is that it closely simulates the human lung environment. The model also allows for the collection of simultaneous PK/PD information through plasma and urine sampling over the test period. There are also several techniques to measure the drug concentrations on the airway surface during the MCC measurements. These include the collection of exhaled breath condensates or a filter paper method to obtain ASL via bronchoscopy.
The ovine model described above was used to evaluate the in vivo effects (efficacy/durability) of aerosol-delivered test agent on MCC. Treatments consisting of either 4 mL of test agent or test agent in combination with HS were tested. To determine if combining HS with test agent enhanced MCC, HS was administered immediately following test agent administration. Test solutions were aerosolized using a Raindrop nebulizer at a flowrate of eight liters per minute and connected to a dosimetry system consisting of a solenoid valve and a source of compressed air (20 psi). The deposited dose of drug in sheep lungs after an aerosol administration using the Raindrop nebulizer is estimated to be 8-15% of the dose. Using a Raindrop nebulizer, radiolabeled TSC was administered over approximately 3 minutes either 4 or 8 hours after drug treatment to evaluate efficacy/durability. Radioactive counts were measured in a central region in the right lung at 5 min intervals for one hour with a gamma camera. Three methods of analysis were utilized, 1) initial rate of clearance (slope) over the first 30 min fitted using linear regression 2) area under the curve for % clearance over time over one hour, and 3) the maximum clearance obtained in one hour.

[2] = canine bronchial epithelial cells, short-circuit current, read-out: Potency of Sodium Channel Blockade IC50
[3] = aerosol, 0.24 nmol/kg (3 μM), MCC at 8 h post-dose

| SMILES | IC50 [1, 2] | also measured |
| --- | --- | --- |
| N=C(NCCCCc1ccc(C[C@H](N)C(=O)O)c2ccccc12)NC(=O)c1nc(Cl)c(N)nc1N [Compound 16, (S)-2-amino-3-(4-(4-(3-(3,5-diamino-6-chloropyrazine-2-carbonyl)guanidino)butyl)naphthalen-1-yl)propanoic acid] | 79.6 nM | – |
| CN(C)CCCc1ccc(NC(=O)[C@@H](N)Cc2ccc(CCCCNC(=N)NC(=O)c3nc(Cl)c(N)nc3N)c3ccccc23)cc1 [Compound 23, (S)-3,5-diamino-N—(N-(4-(4-(2-amino-3-(4-(3-(dimethylamino)propyl)phenylamino)-3-oxopropyl)naphthalen-1-yl)butyl)carbamimidoyl)-6-chloropyrazine-2-carboxamide] | 20.7 nM | – |
| N=C(NCCCCc1ccc(C[C@H](N)C(=O)O)c2c1CCCC2)NC(=O)c1nc(Cl)c(N)nc1N [Compound 139, (S)-2-amino-3-(4-(4-(3-(3,5-diamino-6-chloropyrazine-2-carbonyl)guanidino)butyl)-5,6,7,8-tetrahydronaphthalen-1-yl)propanoic acid] | 73.7 nM | – |
| NC(=NC(=O)c1nc(Cl)c(N)nc1N)NCCCCc1ccc(C[C@H](N)C(=O)Nc2ccc(CCCNC[C@H](O)[C@@H](O)[C@H](O)[C@H](O)CO)cc2)c2c1CCCC2 [Compound 131] | – | IC50 [1]: 6 nM |
| CCCCCCN(CCCCCCc1ccc(NC(=O)[C@@H](N)Cc2ccc(CCCCNC(=N)NC(=O)c3nc(Cl)c(N)nc3N)c3ccccc23)cc1)C[C@H](O)[C@@H](O)[C@H](O)[C@H](O)CO [Compound 58, 3,5-diamino-N—(N-(4-(4-((S)-2-amino-3-(4-(6-(hexyl((2S,3R,4R,5R)-2,3,4,5,6-pentahydroxyhexyl)amino)hexyl)phenylamino)-3-oxopropyl)naphthalen-1-yl)butyl)carbamimidoyl)-6-chloropyrazine-2-carboxamide] | 10.6 nM | – |
| N=C(NCCCCc1ccc(C[C@H](N)C(=O)Nc2ccc(CCCCCCNC[C@H](O)[C@@H](O)[C@H](O)[C@H](O)CO)cc2)c2ccccc12)NC(=O)c1nc(Cl)c(N)nc1N [Compound 53, 3,5-diamino-N—(N-(4-(4-((S)-2-amino-3-oxo-3-(4-(6-((2S,3R,4R,5R)-2,3,4,5,6-pentahydroxyhexylamino)hexyl)phenylamino)propyl)naphthalen-1-yl)butyl)carbamimidoyl)-6-chloropyrazine-2-carboxamide] | 15.5 nM | – |
| N=C(NCCCCc1ccc(C[C@H](N)C(=O)Nc2ccc(CCCN(C[C@H](O)[C@@H](O)[C@H](O)[C@H](O)CO)C[C@H](O)[C@@H](O)[C@H](O)[C@H](O)CO)cc2)c2c1CCCC2)NC(=O)c1nc(Cl)c(N)nc1N [Compound 127, 3,5-diamino-N—(N-(4-(4-((S)-2-amino-3-(4-(3-(bis((2S,3R,4R,5R)-2,3,4,5,6-pentahydroxyhexyl)amino)propyl)phenylamino)-3-oxopropyl)-5,6,7,8-tetrahydronaphthalen-1-yl)butyl)carbamimidoyl)-6-chloropyrazine-2-carboxamide] | 8.6 nM | – |
| N=C(NCCCCc1ccc(C[C@H](N)C(=O)Nc2ccc(CCCNC[C@H](O)[C@@H](O)[C@H](O)[C@H](O)CO)cc2)c2ccccc12)NC(=O)c1nc(Cl)c(N)nc1N [Compound 38, 3,5-diamino-N—(N-(4-(4-((S)-2-amino-3-oxo-3-(4-(3-((2S,3R,4R,5R)-2,3,4,5,6-pentahydroxyhexylamino)propyl)phenylamino)propyl)naphthalen-1-yl)butyl)carbamimidoyl)-6-chloropyrazine-2-carboxamide] | 25.4 nM | – |
| CN(C)CCCc1ccc(NC(=O)[C@@H](N)Cc2ccc3cc(CCCCNC(=N)NC(=O)c4nc(Cl)c(N)nc4N)ccc3c2)cc1 [Compound 103, (S)-3,5-diamino-N—(N-(4-(6-(2-amino-3-(4-(3-(dimethylamino)propyl)phenylamino)-3-oxopropyl)naphthalen-2-yl)butyl)carbamimidoyl)-6-chloropyrazine-2-carboxamide] | 17.9 nM | – |
| N=C(NCCCCc1ccc(C[C@@H](N)C(=O)Nc2ccc(CCCN(C[C@H](O)[C@@H](O)[C@H](O)[C@H](O)CO)C[C@H](O)[C@@H](O)[C@H](O)[C@H](O)CO)cc2)c2ccccc12)NC(=O)c1nc(Cl)c(N)nc1N [Compound 152, 3,5-diamino-N—(N-(4-(4-((R)-2-amino-3-(4-(3-(bis((2S,3R,4R,5R)-2,3,4,5,6-pentahydroxyhexyl)amino)propyl)phenylamino)-3-oxopropyl)naphthalen-1-yl)butyl)carbamimidoyl)-6-chloropyrazine-2-carboxamide] | – | duration of action on MCC vs. vehicle (Sheep MCC; 8 hours post dose): enhanced duration action of MCC vs. vehicle; AUC (% Cl-h) (Sheep MCC; [3]): 17.4* (4) % Cl-h; Initial Slope (8.0-8.5 h) (Sheep MCC; [3]): 37.5* (4) |

From US9593084B2 (Parion Sciences, Inc., priority 2012, dated 2017)
